Where “and” joins values, the source holds several entries; their conditions need not be identical. Equal entries are not always repeated. Where two headings read alike, the source gives them in different places.
Tests used:
Format in all cases: binding
CDK2/cyclin A1 = CDK2/cyclin A1 (Homo sapiens, UniProt P24941); experiment: NanoBRET target engagement, CDK2-NanoLuc co-expressed with cyclin A1 in HEK-293; conditions: probe 5 0.5µM
CDK12/Cyclin K = CDK12/Cyclin K (Homo sapiens, UniProt Q9NYV4); experiment: NanoBRET live-cell target engagement, CDK12-NanoLuc/Cyclin K in HEK-293; conditions: read-out: CDK12/K Inhibition at 10µM (%), 10µM
CDK6 [1] = biological target: T1, CDK6 (Homo sapiens, UniProt Q00534); experiment: Real-time analysis of engagement (kobs, IC50 vs time) in live cells, CDK6; conditions: real-time BRET, 25 °C; response to reviewers
Procedure: CDK2/Cyclin E1 complex was measured in the donor NanoBRET channel (using the standard 450 nm bandpass filter on the Glomax Discover plate reader). Ternary complex was measured in the presence […]
the acceptor NanoBRET channel (using the standard 600 nm longpass filter on the Glomax Discover plate reader). Total LgBiT expression level was determined in the presence of a saturating concentration […]
mg/mL digitonin (as a permeabilization agent). […]
respectively, at probe concentrations identical to those described for steady state analysis of target engagement. Cells were pre-equilibrated with energy transfer probe for 40 min prior to addition of […]
intervals at 25 °C (temperature reduced to avoid evaporation of cell culture medium). To quantify […]
vs time. Apparent association rate was also plotted as k obs vs [RGB286638], where kobs was determined using the one phase association equation (Supplementary Equation 2) in graphpad prism.
Y=Y0 + (Plateau-Y0)*(1-e-K*X) (2) where Y = mBRET ratio, X = time, and K = the observed rate constant ( kobs). Both analyses support […]
Generation of endogenously edited CDK-HiBiT cell lines and target engagement analysis at endogenous protein levels. HEK293 cells were edited to express HiBiT fused to the N -terminus of CDK9 or the C-terminus of CDK16, as described previously 3. For CDK9, the sequence of the guide RNA was […]

CDK3/Cyclin E1 = CDK3/Cyclin E1 (Homo sapiens, UniProt Q00526); experiment: NanoBRET live-cell target engagement, CDK3-NanoLuc/Cyclin E1 in HEK-293; conditions: for inhibition at 10 µM: read-out: CDK3/E1 Inhibition at 10µM (%); for IC50: read-out: CDK3/E1 IC50
CDK6 [2] = biological target: T1, CDK6; experiment: Intracellular residence time by cellular washout, CDK6; conditions: Panel B;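 note: NanoBRET cellular washout in live cells: compound preincubated 2 h at 37 °C, then removed, energy transfer probe association tracked over time versus DMSO vehicle, rising BRET indicating target release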

CDK12/Cyclin K, sequence (Q9NYV4 1-1481 isoform Q9NYV4-2): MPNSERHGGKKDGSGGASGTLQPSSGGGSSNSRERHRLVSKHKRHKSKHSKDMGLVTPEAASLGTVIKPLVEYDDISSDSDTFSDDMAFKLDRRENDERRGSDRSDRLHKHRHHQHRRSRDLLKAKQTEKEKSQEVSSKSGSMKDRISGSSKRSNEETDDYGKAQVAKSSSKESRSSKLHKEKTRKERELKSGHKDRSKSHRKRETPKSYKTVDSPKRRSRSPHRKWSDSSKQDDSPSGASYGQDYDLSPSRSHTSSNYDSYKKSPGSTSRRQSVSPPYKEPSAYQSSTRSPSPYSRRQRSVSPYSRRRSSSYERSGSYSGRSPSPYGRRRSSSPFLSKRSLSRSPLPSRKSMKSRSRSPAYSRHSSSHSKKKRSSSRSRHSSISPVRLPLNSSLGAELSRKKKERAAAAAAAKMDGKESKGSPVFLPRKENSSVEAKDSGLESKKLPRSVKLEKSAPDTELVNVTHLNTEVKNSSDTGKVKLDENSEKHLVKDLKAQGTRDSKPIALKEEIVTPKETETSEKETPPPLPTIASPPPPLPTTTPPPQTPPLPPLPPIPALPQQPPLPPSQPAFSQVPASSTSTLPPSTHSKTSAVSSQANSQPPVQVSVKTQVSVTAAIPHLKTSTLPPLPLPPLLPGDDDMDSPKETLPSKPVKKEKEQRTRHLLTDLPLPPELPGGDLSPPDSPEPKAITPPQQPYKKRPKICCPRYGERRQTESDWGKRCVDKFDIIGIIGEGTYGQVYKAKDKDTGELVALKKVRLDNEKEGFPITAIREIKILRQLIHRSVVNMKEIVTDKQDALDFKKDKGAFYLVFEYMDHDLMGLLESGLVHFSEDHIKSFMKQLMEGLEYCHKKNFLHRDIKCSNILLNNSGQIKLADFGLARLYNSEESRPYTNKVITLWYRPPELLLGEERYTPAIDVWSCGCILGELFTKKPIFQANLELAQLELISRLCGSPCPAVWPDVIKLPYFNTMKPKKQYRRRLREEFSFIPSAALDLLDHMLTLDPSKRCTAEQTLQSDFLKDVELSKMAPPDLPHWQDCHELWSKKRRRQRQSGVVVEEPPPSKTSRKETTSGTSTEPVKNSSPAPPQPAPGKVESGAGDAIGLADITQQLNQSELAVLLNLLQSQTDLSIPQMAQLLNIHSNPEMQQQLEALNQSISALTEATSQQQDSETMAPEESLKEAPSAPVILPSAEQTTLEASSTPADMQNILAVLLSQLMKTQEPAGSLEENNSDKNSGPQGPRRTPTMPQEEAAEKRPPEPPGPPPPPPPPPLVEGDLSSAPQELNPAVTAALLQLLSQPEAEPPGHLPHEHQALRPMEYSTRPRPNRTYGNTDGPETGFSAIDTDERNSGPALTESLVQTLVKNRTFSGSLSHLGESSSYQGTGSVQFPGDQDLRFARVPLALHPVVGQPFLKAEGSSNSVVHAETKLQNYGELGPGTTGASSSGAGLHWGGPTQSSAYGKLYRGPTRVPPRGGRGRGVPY
CDK12/Cyclin K, sequence (O75909 whole entry partner): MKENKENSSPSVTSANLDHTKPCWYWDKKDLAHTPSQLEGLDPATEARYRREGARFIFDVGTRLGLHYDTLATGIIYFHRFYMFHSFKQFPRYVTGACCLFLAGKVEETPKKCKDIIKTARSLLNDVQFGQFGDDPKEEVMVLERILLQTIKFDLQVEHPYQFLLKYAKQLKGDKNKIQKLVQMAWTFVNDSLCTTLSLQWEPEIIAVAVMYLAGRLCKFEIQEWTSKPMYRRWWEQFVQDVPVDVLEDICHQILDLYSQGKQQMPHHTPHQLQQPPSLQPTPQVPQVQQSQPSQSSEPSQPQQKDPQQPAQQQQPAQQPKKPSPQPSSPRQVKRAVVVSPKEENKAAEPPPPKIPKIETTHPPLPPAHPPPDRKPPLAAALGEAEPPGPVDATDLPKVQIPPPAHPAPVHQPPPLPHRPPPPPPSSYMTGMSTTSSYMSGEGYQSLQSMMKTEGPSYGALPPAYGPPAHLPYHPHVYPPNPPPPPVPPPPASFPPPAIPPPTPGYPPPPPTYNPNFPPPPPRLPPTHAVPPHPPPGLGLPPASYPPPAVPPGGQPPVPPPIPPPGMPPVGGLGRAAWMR
CDK3/Cyclin E1, sequence (Q00526 whole entry): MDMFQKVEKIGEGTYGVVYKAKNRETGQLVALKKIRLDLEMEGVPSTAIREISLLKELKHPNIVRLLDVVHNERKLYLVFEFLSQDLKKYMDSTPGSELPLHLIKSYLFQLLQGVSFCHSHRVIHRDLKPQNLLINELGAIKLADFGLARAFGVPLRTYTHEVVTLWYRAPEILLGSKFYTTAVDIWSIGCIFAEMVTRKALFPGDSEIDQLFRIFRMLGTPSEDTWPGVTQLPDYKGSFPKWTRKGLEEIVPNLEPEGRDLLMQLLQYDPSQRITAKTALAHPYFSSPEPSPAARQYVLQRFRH
CDK3/Cyclin E1, sequence (P24864 whole entry partner): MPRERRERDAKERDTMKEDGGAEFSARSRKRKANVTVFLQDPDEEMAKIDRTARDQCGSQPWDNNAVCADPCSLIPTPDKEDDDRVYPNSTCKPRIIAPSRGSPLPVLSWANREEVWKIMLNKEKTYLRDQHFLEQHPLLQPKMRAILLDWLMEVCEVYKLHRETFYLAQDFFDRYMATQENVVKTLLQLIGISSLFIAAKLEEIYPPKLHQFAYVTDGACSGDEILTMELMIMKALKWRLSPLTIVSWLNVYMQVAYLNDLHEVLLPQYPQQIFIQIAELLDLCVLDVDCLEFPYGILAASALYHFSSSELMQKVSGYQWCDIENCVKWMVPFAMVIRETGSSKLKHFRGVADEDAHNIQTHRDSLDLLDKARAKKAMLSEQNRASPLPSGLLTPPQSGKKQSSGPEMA
T1 sequence (Q00534 whole entry): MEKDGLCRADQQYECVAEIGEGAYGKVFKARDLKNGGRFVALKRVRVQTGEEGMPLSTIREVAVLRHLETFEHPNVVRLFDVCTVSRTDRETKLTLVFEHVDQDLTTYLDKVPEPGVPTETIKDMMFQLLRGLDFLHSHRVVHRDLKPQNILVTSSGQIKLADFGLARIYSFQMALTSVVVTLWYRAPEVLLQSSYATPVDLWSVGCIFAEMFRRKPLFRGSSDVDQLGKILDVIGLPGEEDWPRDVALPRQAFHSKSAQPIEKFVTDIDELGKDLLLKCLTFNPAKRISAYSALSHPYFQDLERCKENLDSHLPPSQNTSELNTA
T1 sequence (P24385 whole entry partner): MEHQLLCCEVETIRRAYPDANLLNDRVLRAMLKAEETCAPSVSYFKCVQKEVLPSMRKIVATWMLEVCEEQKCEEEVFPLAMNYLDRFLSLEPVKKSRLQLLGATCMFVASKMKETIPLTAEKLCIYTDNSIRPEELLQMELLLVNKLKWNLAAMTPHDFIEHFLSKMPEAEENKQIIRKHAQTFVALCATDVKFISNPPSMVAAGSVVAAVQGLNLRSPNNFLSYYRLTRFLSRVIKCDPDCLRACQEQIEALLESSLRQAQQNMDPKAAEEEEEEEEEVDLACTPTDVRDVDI

## COCCN1CCN(Cc2ccc(-c3n[nH]c4c3C(=O)c3c(NC(=O)NN5CCOCC5)cccc3-4)cc2)CC1 [RGB286638]
CDK2/cyclin A1
  increase of CDK2 engagement potency with cyclin E1 compared with cyclin A1 co-expression: ~2 orders of magnitude
CDK12/Cyclin K; average of experiments
  inhibition at 10 µM: 47.5%
CDK12/Cyclin K; independent experiment 1
  inhibition at 10 µM: 30.7%
CDK12/Cyclin K; independent experiment 2
  inhibition at 10 µM: 64.4%
CDK6 [1]
  CDK6 off rate from kobs values: > 300 min
CDK3/Cyclin E1; average of experiments
  inhibition at 10 µM: 91.3%
CDK3/Cyclin E1; independent experiment 1
  inhibition at 10 µM: 89.1%
  IC50: 14 nM
CDK3/Cyclin E1; independent experiment 2
  inhibition at 10 µM: 93.6%
  IC50: 10 nM
CDK3/Cyclin E1; average (± SEM where n=3)
  IC50: 12 nM
CDK6 [2]; Time (Min) 0
  CDK6 occupancy (%) over time after compound washout: 82.1951 and 85.1351 and 80.5402
CDK6 [2]; Time (Min) 2.97013
  CDK6 occupancy (%) over time after compound washout: 79.5935 and 83.3333 and 77.8966
CDK6 [2]; Time (Min) 5.97045
  CDK6 occupancy (%) over time after compound washout: 77.3984 and 80.6306 and 74.3678
CDK6 [2]; Time (Min) 8.97078
  CDK6 occupancy (%) over time after compound washout: 75.7724 and 78.2883 and 76.8161
CDK6 [2]; Time (Min) 11.9714
  CDK6 occupancy (%) over time after compound washout: 73.9024 and 76.5766 and 70.3448
CDK6 [2]; Time (Min) 14.9718
  CDK6 occupancy (%) over time after compound washout: 72.7642 and 74.3243 and 69.1954
CDK6 [2]; Time (Min) 17.9723
  CDK6 occupancy (%) over time after compound washout: 71.5447 and 72.4324 and 67.4713
CDK6 [2]; Time (Min) 20.9723
  CDK6 occupancy (%) over time after compound washout: 70.4878 and 71.2613 and 68.046
CDK6 [2]; Time (Min) 23.9731
  CDK6 occupancy (%) over time after compound washout: 69.0244 and 70.3604 and 68.6207
CDK6 [2]; Time (Min) 26.9737
  CDK6 occupancy (%) over time after compound washout: 68.8618 and 68.5586 and 67.4713
CDK6 [2]; Time (Min) 29.9742
  CDK6 occupancy (%) over time after compound washout: 67.3171 and 67.8378 and 66.8966
CDK6 [2]; Time (Min) 32.9743, listed as RGB-286638
  CDK6 occupancy (%) over time after compound washout: 67.6423 and 66.9369 and 67.1264
CDK6 [2]; Time (Min) 35.9749
  CDK6 occupancy (%) over time after compound washout: 67.2358 and 66.5766 and 66.0919
CDK6 [2]; Time (Min) 38.9753
  CDK6 occupancy (%) over time after compound washout: 66.8293
CDK6 [2]; Time (Min) 236.996
  CDK6 occupancy (%) over time after compound washout: 66.1789 and 64.7748 and 56.7816
CDK6 [2]; Time (Min) 239.996
  CDK6 occupancy (%) over time after compound washout: 65.6911 and 64.3243 and 56.5517
CDK6 [2]; Time (Min) 242.996
  CDK6 occupancy (%) over time after compound washout: 66.4228 and 63.0631 and 56.3218
CDK6 [2]; Time (Min) 245.996
  CDK6 occupancy (%) over time after compound washout: 65.6911 and 63.5135 and 59.5402
CDK6 [2]; Time (Min) 248.996
  CDK6 occupancy (%) over time after compound washout: 65.6911 and 63.0631 and 59.5402
CDK6 [2]; Time (Min) 251.996
  CDK6 occupancy (%) over time after compound washout: 65.7724 and 63.1531 and 61.6092
CDK6 [2]; Time (Min) 254.996
  CDK6 occupancy (%) over time after compound washout: 65.8537 and 64.3243 and 54.7126
CDK6 [2]; Time (Min) 257.996
  CDK6 occupancy (%) over time after compound washout: 64.9594 and 63.3333 and 57.7011
CDK6 [2]; Time (Min) 260.996
  CDK6 occupancy (%) over time after compound washout: 65.1219 and 63.8739 and 51.954
CDK6 [2]; Time (Min) 263.996
  CDK6 occupancy (%) over time after compound washout: 63.9024 and 63.4234 and 57.1264
CDK6 [2]; Time (Min) 266.996, listed as RGB-286638
  CDK6 occupancy (%) over time after compound washout: 65.5285 and 63.1531 and 57.4713
CDK6 [2]; Time (Min) 269.996
  CDK6 occupancy (%) over time after compound washout: 64.7968 and 62.5225 and 59.6552
CDK6 [2]; Time (Min) 272.996
  CDK6 occupancy (%) over time after compound washout: 65.8537 and 62.5225 and 60.3448
CDK6 [2]; Time (Min) 275.996
  CDK6 occupancy (%) over time after compound washout: 64.3902 and 62.0721 and 53.3333
CDK6 [2]; Time (Min) 278.996
  CDK6 occupancy (%) over time after compound washout: 65.2032 and 62.6126 and 63.7931
CDK6 [2]; Time (Min) 281.996
  CDK6 occupancy (%) over time after compound washout: 64.8781 and 62.0721 and 57.7011
CDK6 [2]; Time (Min) 284.996
  CDK6 occupancy (%) over time after compound washout: 65.7724 and 63.3333 and 62.8736
CDK6 [2]; Time (Min) 287.996
  CDK6 occupancy (%) over time after compound washout: 63.5772 and 62.5225 and 61.3793
CDK6 [2]; Time (Min) 290.996
  CDK6 occupancy (%) over time after compound washout: 62.6016 and 62.5225 and 59.8851
CDK6 [2]; Time (Min) 293.996
  CDK6 occupancy (%) over time after compound washout: 64.5529 and 62.8829 and 61.8391

— PMC7265341, “Quantifying CDK inhibitor selectivity in live cells” (Nature Communications, 2020)
